In patent US7202261B2, “Calcilytic compounds” (NPS Pharmaceuticals, Inc., priority 1996, dated 2007):
Where a name gives a salt, the structure may show the parent alone.

target: T1, human calcium receptor (Homo sapiens, UniProt P41180); assay: Calcium Receptor Inhibitor Assay; format: cell-based; settings: not given
T1 construct: expressed in transfected cells
T1 sequence (P41180 20-1078): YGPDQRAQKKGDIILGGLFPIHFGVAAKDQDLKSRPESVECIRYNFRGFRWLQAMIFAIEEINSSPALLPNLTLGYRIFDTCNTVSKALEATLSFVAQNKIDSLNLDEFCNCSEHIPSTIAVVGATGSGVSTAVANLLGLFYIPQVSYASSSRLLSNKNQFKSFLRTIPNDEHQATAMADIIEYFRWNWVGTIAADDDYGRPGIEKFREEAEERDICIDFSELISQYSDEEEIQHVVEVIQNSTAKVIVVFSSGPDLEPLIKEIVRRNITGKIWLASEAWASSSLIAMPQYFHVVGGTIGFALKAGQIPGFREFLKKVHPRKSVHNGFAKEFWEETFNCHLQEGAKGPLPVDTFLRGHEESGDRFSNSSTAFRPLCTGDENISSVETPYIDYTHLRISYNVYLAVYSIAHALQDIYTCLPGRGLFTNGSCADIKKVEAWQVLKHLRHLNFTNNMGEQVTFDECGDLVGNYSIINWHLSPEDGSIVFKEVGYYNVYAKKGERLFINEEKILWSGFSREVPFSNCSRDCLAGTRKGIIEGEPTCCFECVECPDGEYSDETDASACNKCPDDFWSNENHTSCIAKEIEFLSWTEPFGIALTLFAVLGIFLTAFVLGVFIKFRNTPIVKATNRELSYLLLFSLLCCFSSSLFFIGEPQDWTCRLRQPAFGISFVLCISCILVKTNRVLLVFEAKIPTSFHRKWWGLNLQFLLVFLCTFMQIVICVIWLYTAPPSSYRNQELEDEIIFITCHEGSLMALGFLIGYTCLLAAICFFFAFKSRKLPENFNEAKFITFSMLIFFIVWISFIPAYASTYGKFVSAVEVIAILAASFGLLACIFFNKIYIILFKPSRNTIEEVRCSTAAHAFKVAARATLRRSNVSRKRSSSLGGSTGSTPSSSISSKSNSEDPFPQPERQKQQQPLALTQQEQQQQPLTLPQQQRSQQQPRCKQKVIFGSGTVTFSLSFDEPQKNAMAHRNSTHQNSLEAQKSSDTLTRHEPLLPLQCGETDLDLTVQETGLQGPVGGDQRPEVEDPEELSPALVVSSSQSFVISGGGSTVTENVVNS
Procedure, shortened: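 Intracellular Ca^2+ measured with fluo-3 at 37° C in stirred cell suspension. Buffer held 1 mM CaCl2 and 1 mg/mL D-glucose. Compound or vehicle added 90 seconds before extracellular Ca^2+ was raised from 1 to 2 mM, and calcilytic activity scored as concentration-dependent block of the intracellular Ca^2+ rise.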

Q: How did the IC50 turn out when `COc1ccc(CC(C)(C)NCC(O)CCCCCCCCO)cc1` (centres unmarked) [Compound 123, N-(2,10-Dihydroxydecyl)-1,1-dimethyl-2-(4-methoxyphenyl)ethylamine Hydrochloride] was run?
A: < 10 µM

Q: `COc1ccc(CC(C)(C)NCC(O)Cc2ccc3c(c2)OCO3)cc1` (centres unmarked) [Compound 124, N-[2-hydroxy-3-(3,4-methylene-dioxyphenyl)propyl]-1,1-dimethyl-2-(4-methoxyphenyl)ethylamine Hydrochloride] was tested. Which IC50 did it give?
A: < 10 µM

Q: Which IC50 does the source give for `COc1ccc(CC(C)(C)NCC(O)COC2CCCCC2C#N)cc1` (centres unmarked) [Compound 131, N-[2-hydroxy-3-(2-cyano-cyclohexyloxy)propyl-1,1-dimethyl-2-(4-methoxyphenyl)ethylamine Hydrochloride] here?
A: < 1 µM

same assay, conditions: HEK 293 4.0–7 cells stably expressing the human calcium receptor; fluo-3; read-out: IC50 for blocking increases of intracellular Ca2+ elicited by extracellular Ca2+

Q: `COc1ccc(CC(C)(C)NC[C@@H](O)COc2cccc(Cl)c2Cl)cc1` [Compound 115, (R)—N-[2-Hydroxy-3-(2,3-dichlorophenoxy)propyl]-1,1-dimethyl-2-(4-methoxyphenyl)ethylamine Hydrochloride] was tested. Which IC50 did it give?
A: < 1 µM

Q: For `COc1ccc(CC(C)(C)NC[C@H](O)COc2cccc(Cl)c2Cl)cc1` [Compound 116, (S)—N-[2-Hydroxy-3-(2,3-dichlorophenoxy)propyl]-1,1-dimethyl-2-(4-methoxyphenyl)ethyl amine Hydrochloride], which IC50 is on record?
A: < 1 µM

Q: How did the IC50 turn out when `COc1ccc(CC(C)(C)NCC(O)COc2ccccc2)cc1C` (centres unmarked) [Compound 117, N-(2-Hydroxy-3-phenoxypropyl)-1,1-dimethyl-2-(4-methoxy-3-methylphenyl)ethylamine Hydrochloride] was run?
A: < 1 µM

Q: Which IC50 does the source give for `COc1ccc(CC(C)(C)NCC(O)COc2cccc(OC)c2C#N)cc1` (centres unmarked) [Compound 118, N-[2-Hydroxy-3-(2-cyano-3-methoxyphenoxy)propyl]-1,1-dimethyl-2-(4-methoxyphenyl)ethylamine Hydrochloride] here?
A: < 1 µM

Q: `COc1ccc(CC(C)(C)NCC(O)COc2cccc(Cl)c2C#N)cc1` (centres unmarked) [Compound 119, N-[2-Hydroxy-3-(3-chloro-2-cyanophenoxy)propyl]-1,1-dimethyl-2-(4-methoxyphenyl)ethylamine Hydrochloride] was tested. Which IC50 did it give?
A: < 1 µM

Q: How did the IC50 turn out when `CC(C)(Cc1ccc2ccccc2c1)NCC(O)COc1ccccc1` (centres unmarked) [Compound 120, N-(2-Hydroxy-3-phenoxypropyl)-1,1-dimethyl-2-(2-naphthyl)ethylamine Hydrochloride] was run?
A: < 1 µM

Q: Which IC50 does the source give for `Cc1ccc(CC(C)(C)NCC(O)COc2ccccc2)cc1C` (centres unmarked) [Compound 121, N-(2-Hydroxy-3-phenoxy)propyl)-1,1-dimethyl-2-(3,4-dimethylphenyl)ethylamine Hydrochloride] here?
A: < 1 µM

Q: Which IC50 does the source give for `COc1ccc(CC(C)(C)NC[C@@H](O)COc2ccccc2C#N)cc1` [Compound 122, (R)—N-[2-Hydroxy-3-(2-cyanophenoxy)propyl]-1,1-dimethyl-2-(4-methoxyphenyl)ethylamine Hydrochloride] here?
A: < 1 µM

Q: `COc1ccc(CC(C)(C)NCC(O)COCCCCCCc2ccccc2)cc1` (centres unmarked) [Compound 126, N-[2-hydroxy-3-(6-phenyl-hexanoxy)propyl]-1,1-dimethyl-2-(4-methoxyphenyl)ethylamine] was tested. Which IC50 did it give?
A: < 1 µM

Q: For `COc1ccc(CC(C)(C)NCC(O)COCCCCc2ccccc2)cc1` (centres unmarked) [Compound 127, N-[2-hydroxy-3-(4-phenyl-butanoxy)propyl]-1,1-dimethyl-2-(4-methoxyphenyl)ethylamine], which IC50 is on record?
A: < 1 µM

Q: With `COc1ccc(CC(C)(C)NCC(O)COc2ccccc2)cc1F` (centres unmarked) [Compound 128, N-(2-hydroxy-3-phenoxypropyl)-1,1-dimethyl-2-(3-fluoro-4-methoxyphenyl) ethylamine] as the compound, how does the IC50 read?
A: < 10 µM

Q: `COc1ccc(CC(C)(C)NCC(O)COc2ccccc2)c(F)c1` (centres unmarked) [Compound 129, N-(2-hydroxy-3-phenoxypropyl)-1,1-dimethyl-2-(2-fluoro-4-methoxyphenyl)ethylamine Hydrochloride] was tested. Which IC50 did it give?
A: < 1 µM

Q: Which IC50 does the source give for `COc1ccc(CC(C)(C)NCC(O)COc2cccc3c(OC)cccc23)cc1` (centres unmarked) [Compound 130, N-[2-hydroxy-3-(5-methoxy-1-napthoxy)propyl]-1,1-dimethyl-2-(4-methoxyphenyl)ethylamine Hydrochloride] here?
A: < 1 µM

Q: Which IC50 does the source give for `COc1ccc(CC(C)(C)NCC(O)COc2ccc(OC)c(OC)c2)cc1` (centres unmarked) [Compound 132, N-[2-hydroxy-3-(3,4-dimethoxyphenoxy)propyl]-1,1-dimethyl-2-(4-methoxyphenyl)ethylamine Hydrochloride] here?
A: < 10 µM

Q: For `COc1ccc(CC(C)(C)NCC(O)COc2cc(OC)cc(OC)c2)cc1` (centres unmarked) [Compound 133, N-[2-hydroxy-3-(3,5-dimethoxyphenoxy)propyl]-1,1-dimethyl-2-(4-methoxyphenyl)ethylamine Hydrochloride], which IC50 is on record?
A: < 1 µM

Q: `COC(=O)c1ccccc1OCC(O)CNC(C)(C)Cc1ccc(OC)cc1` (centres unmarked) [Compound 134, N-[2-hydroxy-3-(2-carbomethoxyphenoxy)propyl]-1,1-dimethyl-2-(4-methoxyphenyl)ethylamine Hydrochloride] was tested. Which IC50 did it give?
A: < 1 µM

Q: With `COc1ccc(CC(C)(C)NCC(O)COc2ccc(C)cc2)cc1` (centres unmarked) [Compound 135, N-[2-hydroxy-3-(4-methylphenoxy)propyl]-1,1-dimethyl-2-(4-methoxyphenyl)ethylamine Hydrochloride] as the compound, how does the IC50 read?
A: < 1 µM

Q: `COc1ccc(CC(C)(C)NCC(O)COc2cccc(Cl)c2Cl)cc1` (centres unmarked) [Compound 136, N-[2-hydroxy-3-(2,3-dichlorophenoxy)propyl]-1,1-dimethyl-2-(4-methoxyphenyl)ethylamine Hydrochloride] was tested. Which IC50 did it give?
A: < 1 µM

Q: How did the IC50 turn out when `COc1ccc(CC(C)(C)NCC(O)COc2cc(Cl)cc(Cl)c2)cc1` (centres unmarked) [Compound 137, N-[2-hydroxy-3-(3,5-dichlorophenoxy)propyl]-1,1-dimethyl-2-(4-methoxyphenyl)ethylamine Hydrochloride] was run?
A: < 1 µM

Q: For `COc1ccc(CC(C)(C)NCC(O)COc2ccc(Cl)cc2Cl)cc1` (centres unmarked) [Compound 138, N-[2-hydroxy-3-(2,4-dichlorophenoxy)propyl]-1,1-dimethyl-2-(4-methoxyphenyl)ethylamine Hydrochloride], which IC50 is on record?
A: < 1 µM

Q: Which IC50 does the source give for `COc1ccc(CC(C)(C)NCC(O)COc2ccc(Cl)c(Cl)c2)cc1` (centres unmarked) [Compound 139, N-[2-hydroxy-3-(3,4-dichlorophenoxy)propyl]-1,1-dimethyl-2-(4-methoxyphenyl)ethylamine Hydrochloride] here?
A: < 1 µM

Q: For `COc1ccc(CC(C)(C)NCC(O)COc2cc(Cl)ccc2Cl)cc1` (centres unmarked) [Compound 140, N-[2-hydroxy-3-(2,5-dichlorophenoxy)propyl]-1,1-dimethyl-2-(4-methoxyphenyl)ethylamine Hydrochloride], which IC50 is on record?
A: < 1 µM

Q: Which IC50 does the source give for `CCc1ccc(OCC(O)CNC(C)(C)Cc2ccc(OC)cc2)cc1` (centres unmarked) [Compound 141, N-[2-hydroxy-3-(4-ethylphenoxy)propyl]-1,1-dimethyl-2-(4-methoxyphenyl)ethylamine Hydrochloride] here?
A: < 1 µM

Q: How did the IC50 turn out when `COc1ccc(CC(C)(C)NCC(O)COc2ccccc2C#N)cc1` (centres unmarked) [Compound 142, N-[2-hydroxy-3-(2-cyanophenoxy)propyl]-1,1-dimethyl-2-(4-methoxyphenyl)ethylamine Hydrochloride] was run?
A: < 1 µM

Q: How did the IC50 turn out when `COc1ccc(CC(C)(C)NCC(O)COc2cccc([N+](=O)[O-])c2)cc1` (centres unmarked) [Compound 143, N-[2-hydroxy-3-(3-nitrophenoxy)propyl]-1,1-dimethyl-2-(4-methoxyphenyl)ethylamine Hydrochloride] was run?
A: < 1 µM

Q: With `CCOc1ccc(OCC(O)CNC(C)(C)Cc2ccc(OC)cc2)cc1` (centres unmarked) [Compound 144, N-[2-hydroxy-3-(4-ethoxyphenoxy)propyl]-1,1-dimethyl-2-(4-methoxyphenyl)ethylamine Hydrochloride] as the compound, how does the IC50 read?
A: < 10 µM

Q: How did the IC50 turn out when `COc1ccc(CC(C)(C)NCC(O)COc2ccc(C(C)C)cc2)cc1` (centres unmarked) [Compound 145, N-[2-hydroxy-3-(4-iso-propylphenoxy)propyl]-1,1-dimethyl-2-(4-methoxyphenyl)ethylamine Hydrochloride] was run?
A: < 1 µM

Q: With `COc1ccc(CC(C)(C)NCC(O)COc2cccc(C(C)C)c2)cc1` (centres unmarked) [Compound 146, N-[2-hydroxy-3-(3-iso-propylphenoxy)propyl]-1,1-dimethyl-2-(4-methoxyphenyl)ethylamine Hydrochloride] as the compound, how does the IC50 read?
A: < 1 µM

Q: `CCOc1cccc(OCC(O)CNC(C)(C)Cc2ccc(OC)cc2)c1` (centres unmarked) [Compound 147, N-[2-hydroxy-3-(3-ethoxyphenoxy)propyl]-1,1-dimethyl-2-(4-methoxyphenyl)ethylamine Hydrochloride] was tested. Which IC50 did it give?
A: < 10 µM
